# What was measured:
# Test in all cases: relative viability (nuclei count vs DMSO), 5 days (fraction); higher = more cells survive
# Irinotecan + Palbociclib = compound: CCc1c2c(nc3ccc(OC(=O)N4CCC(N5CCCCC5)CC4)cc13)-c1cc3c(c(=O)n1C2)COC(=O)[C@]3(O)CC [Irinotecan] + CC(=O)c1c(C)c2cnc(Nc3ccc(N4CCNCC4)cn3)nc2n(C2CCCC2)c1=O [Palbociclib] (partner 0.5 µM)
# Procedure, shortened: (§1)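 Dosing by pin tool came one day after lung cancer cell lines were seeded in 1536-well plates, using either one drug or a fixed anchor-drug dose plus five library-drug doses (not always all listed) in √10 steps. After 5 days, nuclei were counted on 4× images. Relative viability is treated-well nuclei count divided by vehicle-well nuclei count, and values are medians of duplicate plates.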
# RU-SKI 43 + Linsitinib = compound: CC[C@@H](C)CNCC(=O)N1CCC2=C([C@@H]1COC3=CC=CC(=C3)C)C=CS2 [RU-SKI 43] + C[C@]1(O)C[C@@H](c2nc(-c3ccc4ccc(-c5ccccc5)nc4c3)c3c(N)nccn32)C1 [Linsitinib] (partner 1 µM)
# Procedure, shortened: as §1
# RU-SKI 43 + Phenformin = compound: CC[C@@H](C)CNCC(=O)N1CCC2=C([C@@H]1COC3=CC=CC(=C3)C)C=CS2 [RU-SKI 43] + N=C(N)NC(=N)NCCc1ccccc1 [Phenformin] (partner 250 µM)
# Procedure, shortened: as §1
# MK-8033 + Linsitinib = compound: Cn1cc(-c2cnc3ccc4ccc(CS(=O)(=O)NCc5ccccn5)cc4c(=O)c3c2)cn1 [MK-8033] + C[C@]1(O)C[C@@H](c2nc(-c3ccc4ccc(-c5ccccc5)nc4c3)c3c(N)nccn32)C1 [Linsitinib] (partner 1 µM)
# Procedure, shortened: as §1
cell line,measurement,setting,value
UMC-11,relative viability,Irinotecan + Palbociclib; first compound 0.6325 µM,0.343
same,relative viability,Irinotecan + Palbociclib; first compound 2 µM,0.336
same,relative viability,Irinotecan + Palbociclib; first compound 6.325 µM,0.267
same,relative viability,Irinotecan + Palbociclib; first compound 20 µM,0.186
same,relative viability,RU-SKI 43 + Linsitinib; first compound 0.1 µM,1.11
same,relative viability,RU-SKI 43 + Linsitinib; first compound 0.3162 µM,1.21
same,relative viability,RU-SKI 43 + Linsitinib; first compound 1 µM,1.07
same,relative viability,RU-SKI 43 + Linsitinib; first compound 3.162 µM,1.04
same,relative viability,RU-SKI 43 + Linsitinib; first compound 10 µM,1.07
same,relative viability,RU-SKI 43 + Phenformin; first compound 0.1 µM,0.349
same,relative viability,RU-SKI 43 + Phenformin; first compound 0.3162 µM,0.366
same,relative viability,RU-SKI 43 + Phenformin; first compound 1 µM,0.33
same,relative viability,RU-SKI 43 + Phenformin; first compound 3.162 µM,0.32
same,relative viability,RU-SKI 43 + Phenformin; first compound 10 µM,0.344
same,relative viability,MK-8033 + Linsitinib; first compound 0.02 µM,0.973
same,relative viability,MK-8033 + Linsitinib; first compound 0.06325 µM,0.739
same,relative viability,MK-8033 + Linsitinib; first compound 0.2 µM,0.974
same,relative viability,MK-8033 + Linsitinib; first compound 0.6325 µM,0.969
same,relative viability,MK-8033 + Linsitinib; first compound 2 µM,0.979

# Reference: the supplement of paper PMC10307832
